14 compounds from patent US10477864B2, “Microbiocidal quinoline (thio)carboxamide derivatives” (priority 2016, dated 2019) can be followed below.

SMILES strings stand for the structures.

Series [1] relates to Botryotinia fuckeliana (Botrytis cinerea). Kind of series: Botryotinia fuckeliana (Botrytis cinerea) / liquid culture (gray mould). In kind it is cell-based. The conditions noted are these: 72 h, read-out: control of Botryotinia fuckeliana.
The test system of series [2] is Fusarium culmorum. Kind of series: microbe, parasite or virus in culture. The conditions noted are these: read-out: control of Fusarium culmorum. The format is cell-based.
Series [3] concerns Fusarium culmorum. Kind of series: whole plant or invertebrate. The format is in vivo. The conditions noted are these: in Triticum aestivum, read-out: control of Fusarium culmorum.
Series [4] relates to Glomerella lagenarium (Colletotrichum lagenarium). Kind of series: Glomerella lagenarium (Colletotrichum lagenarium) / liquid culture (anthracnose). In kind it is cell-based. The conditions noted are these: Colletotrichum orbiculare; read-out: control of Glomerella lagenarium.
In series [5] the test system is Gaeumannomyces graminis. Put plainly: Gaeumannomyces graminis / liquid culture (take-all of cereals). The format is cell-based. The conditions noted are these: read-out: control of Gaeumannomyces graminis.
In series [6] the test system is Monographella nivalis (Microdochium nivale). Kind of series: Monographella nivalis (Microdochium nivale) / liquid culture (foot rot cereals). The format is cell-based. The conditions noted are these: 96 h, read-out: control of Monographella nivalis.
The test system of series [7] is Magnaporthe grisea (Pyricularia oryzae). Put plainly: microbe, parasite or virus in culture. The conditions noted are these: 72 h, read-out: control of Magnaporthe grisea. The format is cell-based.

As for `CC(C)(NC(=O)c1cnc2ccccc2c1)C(C)(C)c1ccccc1F` [Compound E-1, N-[2-(2-fluorophenyl)-1,1,2-trimethyl-propyl]quinoline-3-carboxamide], the inhibition of growth at 200 ppm in series [1], in series [2], in series [4], in series [5] and in series [6] was no less than 80% throughout. Moreover, in series [3], the pest or weed control at 200 ppm is no less than 80%.

As to `CC(C)CC(C)(Cc1ccccc1)NC(=O)c1cnc2ccccc2c1` (stereo not drawn) [Compound E-13, N-(1-benzyl-1,3-dimethyl-butyl)quinoline-3-carboxamide], the inhibition of growth at 200 ppm in series [1], in series [2], in series [4], in series [5] and in series [6] was no less than 80% each time. The pest or weed control at 200 ppm in series [3] was no less than 80%.

As a reminder, the melting point is the temperature of the solid-liquid transition. `O=C(NC(CCC(F)(F)F)Cc1ccccc1)c1cnc2c(Cl)cccc2c1` (stereo not drawn) [Compound E-17, N-(1-benzyl-4,4,4-trifluoro-butyl)-8-chloro-quinoline-3-carboxamide] returned a melting point of 163 to 167 °C. In series [1], the inhibition of growth at 200 ppm was no less than 80%. In addition, in series [2], the inhibition of growth at 200 ppm was no less than 80%. In addition, the pest or weed control at 200 ppm in series [3] was no less than 80%. Besides, the inhibition of growth at 200 ppm in series [5] was no less than 80%. In series [7], the inhibition of growth at 200 ppm was no less than 80%.

`Cc1cccc2cc(C(=O)NC(CCC(F)(F)F)Cc3ccccc3)cnc12` (stereo not drawn) [Compound E-19, N-(1-benzyl-4,4,4-trifluoro-butyl)-8-methyl-quinoline-3-carboxamide]: the melting point lay in the range of 158 to 161 °C. Further, in series [1], the inhibition of growth at 200 ppm was no less than 80%. The inhibition of growth at 200 ppm in series [2] was no less than 80%. In series [3], the pest or weed control at 200 ppm is no less than 80%. Also, the inhibition of growth at 200 ppm in series [5] is no less than 80%. Besides, in series [7], the inhibition of growth at 200 ppm was no less than 80%.

With `C=CCC(C)(Cc1ccccc1)NC(=O)c1cnc2ccccc2c1` (stereo not drawn) [Compound E-37, N-(1-benzyl-1-methyl-but-3-enyl)quinoline-3-carboxamide], the inhibition of growth at 200 ppm in series [1], in series [2], in series [4], in series [5], in series [6] and in series [7] was no less than 80% each time.

Regarding `C=CCC(C)(Cc1ccccc1)NC(=O)c1cnc2c(F)cccc2c1` (stereo not drawn) [Compound E-38, N-(1-benzyl-1-methyl-but-3-enyl)-8-fluoro-quinoline-3-carboxamide], the inhibition of growth at 200 ppm in series [1], in series [2], in series [4], in series [5], in series [6] and in series [7] was no less than 80% each time. For the same compound, the pest or weed control at 200 ppm in series [3] was no less than 80%.

`CC(C)CC(C)(Cc1ccccc1)NC(=O)c1cnc2cc(F)ccc2c1` (stereo not drawn) [Compound E-40, N-(1-benzyl-1,3-dimethyl-butyl)-7-fluoro-quinoline-3-carboxamide] showed a melting point of 142 to 144 °C. The inhibition of growth at 200 ppm in series [1] is no less than 80%. In addition, in series [2], the inhibition of growth at 200 ppm is no less than 80%. The inhibition of growth at 200 ppm in series [4] was no less than 80%. Besides, in series [5], the inhibition of growth at 200 ppm was no less than 80%. Moreover, the inhibition of growth at 200 ppm in series [7] is no less than 80%.

As to `CCCC(C)(Cc1ccccc1)NC(=O)c1cnc2c(F)cccc2c1` (stereo not drawn) [Compound E-42, N-(1-benzyl-1-methyl-butyl)-8-fluoro-quinoline-3-carboxamide], the inhibition of growth at 200 ppm in series [1], in series [2], in series [4], in series [5], in series [6] and in series [7] was no less than 80% each time. Moreover, the pest or weed control at 200 ppm in series [3] was no less than 80%.

Regarding `CCCC(C)(Cc1ccccc1)NC(=O)c1cnc2ccccc2c1` (stereo not drawn) [Compound E-43, N-(1-benzyl-1-methyl-butyl)quinoline-3-carboxamide], the inhibition of growth at 200 ppm in series [1], in series [2], in series [4], in series [5], in series [6] and in series [7] was no less than 80% in each case. Also, in series [3], the pest or weed control at 200 ppm is no less than 80%.

With `CC(C)CC(C)(Cc1cccc(C#N)c1)NC(=O)c1cnc2c(F)cccc2c1` (stereo not drawn) [Compound E-46, N-[1-[(3-cyanophenyl)methyl]-1,3-dimethyl-butyl]-8-fluoro-quinoline-3-carboxamide], the melting point was in the range of 45 to 46 °C. Besides, in series [1], the inhibition of growth at 200 ppm was no less than 80%. Also, the inhibition of growth at 200 ppm in series [2] is no less than 80%. The inhibition of growth at 200 ppm in series [4] was no less than 80%. In addition, the inhibition of growth at 200 ppm in series [5] was no less than 80%. Besides, the inhibition of growth at 200 ppm in series [7] was no less than 80%.

As for `C=C(C)CC(Cc1ccccc1)(NC(=O)c1cnc2c(F)cccc2c1)C1CC1` (stereo not drawn) [Compound E-53, N-(1-benzyl-1-cyclopropyl-3-methyl-but-3-enyl)-8-fluoro-quinoline-3-carboxamide], the inhibition of growth at 200 ppm in series [1], in series [2], in series [4], in series [5], in series [6] and in series [7] was no less than 80% in each case.

For `CC(C)C[C@@H](Cc1ccccc1)NC(=O)c1cnc2c(F)cccc2c1` [Compound F-4, N-[(1S)-1-benzyl-3-methyl-butyl]-8-fluoro-quinoline-3-carboxamide], the inhibition of growth at 200 ppm in series [1], in series [2], in series [4], in series [5] and in series [6] was no less than 80% throughout. The pest or weed control at 200 ppm in series [3] is no less than 80%.

Turning to `CC(C)C[C@](C)(Cc1ccccc1)NC(=O)c1cnc2ccccc2c1` [Compound F-5, N-[(1R)-1-benzyl-1,3-dimethyl-butyl]quinoline-3-carboxamide], the inhibition of growth at 200 ppm in series [1], in series [2], in series [4], in series [5] and in series [6] was no less than 80% throughout. Also, the pest or weed control at 200 ppm in series [3] was no less than 80%.

Take `CC(C)(C)C[C@@](C)(Cc1ccccc1)NC(=O)c1cnc2c(F)cccc2c1` [Compound F-18, N-[(1S)-1-benzyl-1,3,3-trimethyl-butyl]-8-fluoro-quinoline-3-carboxamide]: the inhibition of growth at 200 ppm in series [1], in series [2], in series [4], in series [5] and in series [6] was no less than 80% each time. Further, in series [3], the pest or weed control at 200 ppm is no less than 80%.
